For one experiment, the target named is T1, TPα (Homo sapiens, UniProt P21731).
T1 construct: expressed in transfected cells
T1 sequence (P21731 1-343): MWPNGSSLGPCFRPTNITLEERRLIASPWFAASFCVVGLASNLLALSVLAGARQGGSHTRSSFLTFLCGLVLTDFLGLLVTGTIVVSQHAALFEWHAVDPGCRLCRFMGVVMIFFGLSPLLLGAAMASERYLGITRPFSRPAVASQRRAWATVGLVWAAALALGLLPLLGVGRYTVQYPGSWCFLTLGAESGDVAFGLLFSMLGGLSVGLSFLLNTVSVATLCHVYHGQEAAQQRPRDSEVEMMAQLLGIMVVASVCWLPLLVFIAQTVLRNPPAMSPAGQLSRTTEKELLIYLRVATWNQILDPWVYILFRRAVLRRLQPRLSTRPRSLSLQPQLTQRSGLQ
Put plainly: U46619-induced [Ca2+]i mobilization in HEK.TPα cells. Format: cell-based. Conditions: for remaining activity at 1 µM / Percentage of Control, TPα, 1 μM: antagonist 1 μM; for remaining activity at 1 µM / remaining activity at 10 µM / Percentage of Control, TPα, 1 μM / Percentage of Control, TPα, 10 μM / IC50: 1 μM U46619; for remaining activity at 1 µM / remaining activity at 10 µM / Percentage of Control, TPα, 1 μM / Percentage of Control, TPα, 10 μM: % of agonist-induced response in vehicle-treated cells; for remaining activity at 1 µM: read-out: Percentage of Control, TPα, 1 μM; for remaining activity at 10 µM / Percentage of Control, TPα, 10 μM: antagonist 10 μM; for remaining activity at 10 µM: read-out: Percentage of Control, TPα, 10 μM; for IC50: HEK.TPα cells, Table 2, read-out: IC50 data for U46619-mediated [Ca2+]i mobilization, TPα; for TPα:TPβ Selectivity Ratio: IC50 TPα/IC50 TPβ. From the text:
(§1) An appropriate functional test for the evaluation of the agonistic and/or antagonistic potency of the compounds of the invention is the determination of calcium flux. Both TPα and TPβ are coupled to the G-protein Gαq. Therefore, stimulation of these receptors ultimately leads to a release of intracellular calcium ([Ca^2+]i) from intracellular stores. Consequently, the determination of [Ca^2+]i flux represents an appropriate functional test for the evaluation of the agonistic/antagonistic potency of compounds of the invention. Calcium can be measured using a molecule characterized by the covalent combination of a Ca^2+ chelating group and a fluorophore group. The Ca^2+ binding properties of these indicators are formed by the presence of a tetracarboxylic acid core as found for example in EGTA (Ethylene Glycol bis(2-aminoethyl)Tetraacetic Acid). Binding of Ca^2+ produces a wavelength shift in either the excitation or emission fluorescence spectra or a change in the emission intensity. Whereas the Ca^2+ binding to EGTA is pH dependent, recent dyes are designed from an EGTA derivative, BAPTA (1,2-Bis(2-Aminophenoxy)ethane-N,N,N′,N′-Tetraacetic Acid). Loading of these dyes inside cells commonly uses esterified forms (acetoxymethyl ester), which are able to cross the cell membranes and are subsequently hydrolyzed by esterases inside the cell.
(§2) Estimation of [Ca^2+]i flux is calculated from the fluorescence signal (F). For calibration, the maximal fluorescence (Fmax, Ca^2+-saturated form of the dye) as well as minimal fluorescence (Fmin, Ca^2+-free form of the dye) must be determined. These parameters are determined usually in situ after the experiment, for example by subsequent addition to the mixture of a cell-disrupting agent that releases all Ca^2+ such as Triton X100 and a potent Ca^2+-chelating agent such as EGTA. After subtraction of background fluorescence, [Ca^2+]; flux can be calculated for non-ratiometric indicators.
(§3) Intracellular [Ca^2+]; fluxes were measured using a fluorescence plate reader following a modified protocol of Kassack et al., ‘Quantitative comparison of functional screening by measuring intracellular Ca^2+ with radioligand binding at recombinant human dopamine receptors’, AAPS Pharmsci, 2002, 4(4); 102-111, in cell lines (e.g. HEK293 or other cell type) endogenously-expressing or over-expressing either TPα, TPβ or any other receptor or protein to be screened.
(§4) By way of example, HEK 293 cells which have been grown for 3-4 days in normal growth media (minimum essential media containing 10% FBS and 2 mmol/1 L-glutamine), under normal growth conditions (37° C., in humidified 5% CO2 atmosphere) are washed and harvested in KREBs-HEPES buffer (118 mM NaCl, 4.7 mM KCl, 1.2 mM MgSO4, 1.2 mM KH2PO4, 4.2 mM NaHCO3, 11.7 mM D-glucose, 1.3 mM CaCl2, 10 mM HEPES, pH 7.4). Cells are then incubated with 3 μM Fluo-4 in KREBs-HEPES buffer containing 1% Pluoronic F-127, for 1 hr at 25° C. with agitation. Then, cells are washed in KREBs-HEPES buffer containing 0.5% BSA and re-suspended at a final concentration of 3×10^5 cells/ml. Approx. 5.4×10^4 cells per well are plated in a 96-well plate and pre-incubated with test compounds for 10 m prior to measuring the fluorescence intensity at 520 nm for 25 seconds at 1 s intervals to monitor baseline using the Fluoroskan Ascent. Agonist (e.g., 1 μM U46619) is injected into separate wells by the automatic pipettor and fluorescence intensity is monitored at 520 nm for 75 seconds at 1 s intervals. Thereafter, Triton X100 and EGTA are added sequentially where Fmax refers to maximal fluorescence intensity measured after permeabilization of the cells with 2% Triton X100 and Fmin refers to fluorescence intensity measured after addition of 1 mM EGTA.
(§5) The dye Fluo-4 has its excitation peak at 480 nm, in the visible spectra, which spare cells to be damaged by UV (340-360 nm) stimulation and reduces auto-fluorescence of cells. […]

The next experiment concerns the target T2, TPβ (Homo sapiens, UniProt P21731).
T2 construct: expressed in transfected cells
Put plainly: U46619-induced [Ca2+]i mobilization in HEK.TPβ cells. Format: cell-based. Conditions: 1 μM U46619; for remaining activity at 1 µM / remaining activity at 10 µM / Percentage of Control, TPβ, 1 μM / Percentage of Control, TPβ, 10 μM: % of agonist-induced response in vehicle-treated cells; for remaining activity at 1 µM: read-out: Percentage of Control, TPβ, 1 μM; for remaining activity at 10 µM / Percentage of Control, TPβ, 10 μM: antagonist 10 μM; for remaining activity at 10 µM: read-out: Percentage of Control, TPβ, 10 μM; for IC50: HEK.TPβ cells, Table 2, read-out: IC50 data for U46619-mediated [Ca2+]i mobilization, TPβ.
Text: as §1, §2, §3, §4, §5

The values that follow come from patent US9718781B2, “Methods and compounds for treating proliferative disorders and viral infections” (University College Dublin, National University of Ireland, …, priority 2012, dated 2017).

T2 sequence (P21731 1-407 isoform P21731-2): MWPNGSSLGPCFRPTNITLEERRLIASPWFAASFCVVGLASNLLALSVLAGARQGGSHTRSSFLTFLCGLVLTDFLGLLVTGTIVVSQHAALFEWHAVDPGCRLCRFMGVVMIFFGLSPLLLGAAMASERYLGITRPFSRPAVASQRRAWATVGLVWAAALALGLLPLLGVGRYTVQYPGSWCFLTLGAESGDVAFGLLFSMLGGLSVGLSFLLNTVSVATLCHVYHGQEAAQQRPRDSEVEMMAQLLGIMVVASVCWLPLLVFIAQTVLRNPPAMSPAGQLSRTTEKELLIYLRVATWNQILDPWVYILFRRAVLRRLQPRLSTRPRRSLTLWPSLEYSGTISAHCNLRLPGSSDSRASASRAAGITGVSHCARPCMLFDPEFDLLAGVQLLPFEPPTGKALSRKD

Take `COc1ccc(-c2cccc(Oc3ccc(Cl)cc3S(=O)(=O)NC(=O)NC(C)(C)C)c2)cc1` [NTP30, N-(tert-butylcarbamoyl)-5-chloro-2-((4′-methoxy-[1,1′-biphenyl]-3-yl)oxy)benzenesulfonamide]: at TPα, the remaining activity at 1 µM was 52.2 ± 3.9% and the remaining activity at 10 µM was determined as 23.3 ± 3.63%. Also, on TPβ (antagonist 1 μM), the “activity class in HEK.TPβ cells” value was “ACTIVE” and the remaining activity at 1 µM is 46.5 ± 5.86%. In addition, the remaining activity at 10 µM on TPβ was 9.31 ± 1.57%.

For `COc1ccc(-c2cccc(Oc3ccncc3S(=O)(=O)NC(=O)NC(C)(C)C)c2)cc1` [NTP31, N-(tert-butylcarbamoyl)-4-((4′-methoxy-[1,1′-biphenyl]-3-yl)oxy)pyridine-3-sulfonamide], the remaining activity at 1 µM on TPα came to 77.3 ± 8.72%; on TPβ (antagonist 1 μM), 74.8 ± 5.49%. The remaining activity at 10 µM on TPα came out at 52.7 ± 2.89%; at TPβ, 27.7 ± 4.21%.

Take `COc1ccc(-c2cccc(Oc3cc(C)c(C#N)cc3S(=O)(=O)NC(=O)NC(C)(C)C)c2)cc1` [NTP32, N-(tert-butylcarbamoyl)-5-cyano-2-((4′-methoxy-[1,1′-biphenyl]-3-yl)oxy)-4-methyl benzenesulfonamide]: on TPα, the “Percentage of Control, TPα, 1 μM” value was 80.3 ± 4.21% and the “Percentage of Control, TPα, 10 μM” value was 69.3 ± 2.07%. Besides, at TPβ (antagonist 1 μM), the “Percentage of Control, TPβ, 1 μM” value came out at 93.6 ± 4.06%. At TPβ, the “Percentage of Control, TPβ, 10 μM” value is 46.2 ± 4.83%.

Consider `COc1ccc(-c2cccc(Oc3ccc(C#N)cc3S(=O)(=O)NC(=O)NC(C)(C)C)c2)cc1` [NTP33, N-(tert-butylcarbamoyl)-5-cyano-2-((4′-methoxy-[1,1′-biphenyl]-3-yl)oxy)benzene-sulfonamide], for which, at TPα, the “Percentage of Control, TPα, 1 μM” value is given as 103 ± 6.25% and the “Percentage of Control, TPα, 10 μM” value turned out to be 82.4 ± 5.86%. For the same molecule, the “Percentage of Control, TPβ, 1 μM” value at TPβ (antagonist 1 μM) stood at 75.6 ± 6.46%. In addition, at TPβ, the “Percentage of Control, TPβ, 10 μM” value is recorded as 34.5 ± 1.56%.

Regarding `COc1ccc(-c2cccc(Oc3cc[n+]([O-])cc3S(=O)(=O)NC(=O)NC(C)(C)C)c2)cc1` [NTP41, 3-(N-(tert-butylcarbamoyl)sulfamoyl)-4-((4′-methoxy-[1,1′-biphenyl]-3-yl)oxy)pyridine 1-oxide], the remaining activity at 1 µM was 82.6 ± 3.41% at TPα and 72.2 ± 5.66% at TPβ (antagonist 1 μM). The remaining activity at 10 µM at TPα was determined as 52.8 ± 8.03%; at TPβ, 18.8 ± 1.77%.

For orientation: IC50 means the midpoint of a concentration-inhibition curve. On to `CCCCCNC(=O)NS(=O)(=O)c1cc([N+](=O)[O-])ccc1Oc1cccc(-c2ccc(OC)cc2)c1` [XLIII], for which the concentration for half-maximal inhibition (IC50) at TPα was 13 µM; on TPβ, 9.33 µM. Also, the “TPα:TPβ Selectivity Ratio” value at TPα amounted to 1.4.

In the case of `CC(C)(C)NC(=O)NS(=O)(=O)c1cc([N+](=O)[O-])ccc1Oc1cccc(I)c1` [XXXVIII, 2-(3-Iodophenoxy)-5-nitrobenzene(t-butyl)sulfonyl urea], at TPα, the IC50 worked out at 4.01 µM and the “TPα:TPβ Selectivity Ratio” value was determined as 2. The IC50 on TPβ was found to be 1.99 µM.
